According to PubChem BioAssay (NCI):
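In this assay, cells in 96-well plates receive the compound at five concentrations for 48 hours. Endpoints are linearly interpolated between the surrounding concentrations. At the GI50, growth is halved. TGI marks complete inhibition of growth.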

Columns and labels:
Assay in all cases: DTP human tumour cell line panel, 48 h
KM20L2 colon = tested on: KM20L2 colon
ACHN renal = tested on: ACHN renal
CCRF-CEM leukemia = tested on: CCRF-CEM leukemia
MOLT-4 leukemia = tested on: MOLT-4 leukemia
A498 renal = tested on: A498 renal
SNB-78 CNS = tested on: SNB-78 CNS
HOP-92 NSCLC = tested on: HOP-92 NSCLC
DLD-1 colon = tested on: DLD-1 colon
RXF-631 renal = tested on: RXF-631 renal
XF 498 CNS = tested on: XF 498 CNS
DMS 273 small cell lung = tested on: DMS 273 small cell lung
LXFL 529 NSCLC = tested on: LXFL 529 NSCLC
NCI-H522 lung = tested on: NCI-H522 lung
M19-MEL melanoma = tested on: M19-MEL melanoma
SNB-19 CNS = tested on: SNB-19 CNS
DMS 114 small cell lung = tested on: DMS 114 small cell lung
HOP-18 NSCLC = tested on: HOP-18 NSCLC

| SMILES | TGI (KM20L2 colon) [µM] | TGI (ACHN renal) [µM] | TGI (CCRF-CEM leukemia) [µM] | TGI (MOLT-4 leukemia) [µM] | TGI (A498 renal) [µM] | TGI (SNB-78 CNS) [µM] | TGI (HOP-92 NSCLC) [µM] | TGI (DLD-1 colon) [µM] | TGI (RXF-631 renal) [µM] | TGI (XF 498 CNS) [µM] | TGI (DMS 273 small cell lung) [µM] | TGI (LXFL 529 NSCLC) [µM] | TGI (NCI-H522 lung) [µM] | TGI (M19-MEL melanoma) [µM] | TGI (SNB-19 CNS) [µM] | TGI (DMS 114 small cell lung) [µM] | GI50 (MOLT-4 leukemia) [µM] | GI50 (A498 renal) [µM] | TGI (HOP-18 NSCLC) [µM] |
| --- | --- | --- | --- | --- | --- | --- | --- | --- | --- | --- | --- | --- | --- | --- | --- | --- | --- | --- | --- |
| COC(=O)NN=C1C(C)(C)C(=O)C1(C)C | > 100 | > 100 | > 100 | > 100 | > 100 | > 100 | > 100 | > 100 | > 100 | > 100 | > 100 | > 100 | > 100 |  |  |  |  |  |  |
| CCCCN(Cc1ccccc1)C(=NC#N)N(Cc1ccccc1)Cc1ccccc1 | 95.6 | > 72.3 | > 100 | > 100 | > 100 | > 100 | 53.1 | > 100 |  |  | 43.6 | 34.3 | 40.6 | 62.6 | > 100 |  |  |  |  |
| NC(CCC(=O)NC(CSC(=O)N(O)c1ccccc1)C(=O)NCC(=O)O)C(=O)O (stereo not drawn) | > 1000 | > 1000 | > 1000 | > 1000 | > 1000 | > 1000 | > 1000 | > 1000 |  |  | > 1000 | > 1000 | > 1000 | > 1000 | > 1000 | > 1000 |  |  |  |
| CC(C)(C)c1ccc(-n2c3nc(=O)n(-c4ccccc4CO)c(=O)c-3cc3ccccc32)cc1 |  | > 100 | 66.3 | 57.2 | > 100 |  | 97.7 |  |  |  |  |  | > 100 |  | > 100 |  |  |  |  |
| CSc1sc(=S)sc1C(=O)N(C)c1ccccc1 | > 100 | > 100 | > 100 | > 100 |  | > 100 |  |  |  | > 100 | > 100 | > 100 | > 100 | > 100 | > 100 | > 100 |  |  |  |
| CN(C)CCCNc1c(C#N)[n+]([O-])c2cc(Cl)ccc2[n+]1[O-] |  | 22.2 | 42 | 20.2 | > 52.4 |  | 25.5 |  |  |  |  |  | 14.1 |  | > 100 |  |  |  |  |
| CC1=NN(C(=O)CC(=O)Nc2ccc(C)cc2)C(=O)C1N=Nc1ccc(S(=O)(=O)c2ccc(N=NC3C(=O)N(C(=O)CC(=O)Nc4ccc(C)cc4)N=C3C)cc2)cc1 (stereo not drawn) |  | > 100 | > 100 | > 100 | > 100 |  | > 100 |  |  |  |  |  | > 100 |  | > 100 |  |  |  |  |
| CCN(C(C)=O)c1cnc(/C=N/NC(N)=S)c2ccccc12 |  | > 22.4 | > 100 | > 31.5 | > 91.6 |  | > 100 |  |  |  |  |  | > 36.2 |  | > 100 |  |  |  |  |
| O=C(NNCc1ccco1)c1cc2ccccc2[nH]1 |  | > 100 | > 100 | > 100 | > 100 |  | > 96.4 |  |  |  |  |  | > 100 |  | > 100 |  |  |  |  |
| O=C1CCCC1C(O)(C(F)(F)F)C(F)(F)F (stereo not drawn) |  | > 100 | > 100 | > 100 | > 100 |  | > 100 |  |  |  |  |  | > 100 |  | > 100 |  |  |  |  |
| Cc1ccc(C)n1-c1ccccc1C1C=CN(C(=O)OC(C)(C)C)C=C1 |  | > 100 | > 100 | 68.7 | > 100 |  | > 100 |  |  |  |  |  | 36.2 |  | > 100 |  |  |  |  |
| COC(=O)NC12CC3CC(CC(F)(C3)C1)C2 | > 100 | > 100 | > 100 | > 100 | > 100 | > 100 | > 100 | > 100 | > 100 | > 100 | > 100 |  | > 100 | > 100 | > 100 |  |  |  |  |
| Nc1ccc(CCSSCCc2ccc(N)cc2)cc1 |  | > 93.2 | > 100 | 14.7 | > 94.7 |  | > 100 |  |  |  |  |  | 34.9 |  | > 100 |  |  |  |  |
| CC(=O)c1cccc(Nc2nc3ccc(Cl)cc3c3[nH]c4ccccc4c23)c1 |  | 40.6 | > 100 | > 100 | 7.26 |  | 13.4 |  |  |  |  |  | 16.4 |  | 48.6 |  | 6.41 | 2.15 |  |
| Cn1ccc2c(C(=O)c3ccccc3)cccc2c1=O |  | > 100 | > 100 | > 100 |  |  | > 100 | > 100 |  | > 100 | > 100 | > 100 | 81.1 | > 100 |  | > 100 |  |  |  |
| COc1ccc2c(c1)Oc1cc(O)ccc1[C@@H]2c1ccccc1C(=O)NC(C)c1ccccc1 (stereo partly drawn) | 31.4 | 41.1 | 98.7 | 36.2 | 32.1 | 32.6 |  | 39.4 |  |  | 28.2 | 30.1 | 33.4 | 32.2 | 32.7 | 32.3 |  |  |  |
| O=C(c1ccccc1)[C@@H]1C[C@H](Sc2ccccc2)c2cc(Cl)ccc2N1 | 70.3 | > 100 |  | 60.9 | 48.1 | > 100 |  | > 100 | 83.1 | 46.9 | 84 | 77.5 | 48.6 | > 100 | > 100 | 82.6 |  |  | > 100 |
| Cc1ccc2c(c1)CC1(Cc3c(C)cccc3C1=O)C2=O (stereo not drawn) |  | > 100 | > 100 | > 100 | > 100 |  | > 100 |  |  |  |  |  | > 100 |  | > 100 |  |  |  |  |
| O=C(O)CCc1cccc2c1oc1c(CCC(=O)O)cccc12 | > 100 | > 100 | > 100 | > 100 | > 100 | > 100 | > 100 | > 100 |  | > 100 | > 100 | > 100 | > 100 | > 100 | > 100 | > 100 |  |  | > 100 |
